Assay in all cases: Post-emergence efficacy, glasshouse pot test
Common to all, as to type: in vivo
What all share (conditions): evaluated after 13 days

The test system of experiment [1] is Ipomoea hederacea (IPOHE). As to the method: (§1) B1 Post-emergence Efficacy Seeds of a variety of test species are sown in standard soil in pots:— Solanum nigrum (SOLNI), Amaranthus retoflexus (AMARE), Setaria faberi (SETFA), Echinochloa crus-galli (ECHCG), Ipomoea hederacea (IPOHE), Lolium perenne (LOLPE). After 8 days cultivation (post-emergence) under controlled conditions in a glasshouse (at 24/16° C., day/night; 14 hours light; 65% humidity), the plants are sprayed with an aqueous spray solution derived from the formulation of the technical active ingredient in acetone/water (50:50) solution containing 0.5% Tween 20 (polyoxyethylene sorbitan monolaurate, CAS RN 9005-64-5). Compounds are applied at 1000 g/ha and 250 g/ha. The test plants are then grown in a glasshouse under controlled conditions in a glasshouse (at 24/16° C., day/night; 14 hours light; 65% humidity) and watered twice daily. After 13 days, the test is evaluated for the percentage damage caused to the plant. The biological activities are shown below in Table B1, on a five point scale (5=80-100%; 4=60-79%; 3=40-59%; 2=20-39%; 1=0-19%).

Experiment [2] relates to Amaranthus retoflexus (AMARE). As to the method: as §1
A further experiment relates to Setaria faberi (SETFA). The protocol: as §1
Another experiment concerns Lolium perenne (LOLPE). As to the method: as §1
The next experiment deals with Solanum nigrum (SOLNI). The protocol: as §1
Experiment [3] relates to Echinochloa crus-galli (ECHCG). As to the method: as §1

In the case of `CC1(C)C(=O)C(c2c(Cl)ccc(Cl)c2OCc2ccccc2)C(=O)c2nccnc21` (stereo not drawn) [Compound 1.01, 7-(2-benzyloxy-3,6-dichloro-phenyl)-8-hydroxy-5,5-dimethyl-quinoxalin-6-one], the “percentage damage caused to the plant, IPOHE (five point scale)” value in experiment [1] (250 g/Ha) and in experiment [1] (1000 g/Ha) was 5 (5=80-100%) in each case. Also, the “percentage damage caused to the plant, AMARE (five point scale)” value in experiment [2] (250 g/Ha) and in experiment [2] (1000 g/Ha) was 5 (5=80-100%) in each case. The “percentage damage caused to the plant, SETFA (five point scale)” value in the experiment with Setaria faberi (SETFA) (250 g/Ha) and with Setaria faberi (SETFA) (1000 g/Ha) was 5 (5=80-100%) throughout. Further, the “percentage damage caused to the plant, LOLPE (five point scale)” value in the experiment on Lolium perenne (LOLPE) (250 g/Ha) and in the experiment with Lolium perenne (LOLPE) (1000 g/Ha) was 5 (5=80-100%) each time. Moreover, the “percentage damage caused to the plant, SOLNI (five point scale)” value with Solanum nigrum (SOLNI) (250 g/Ha) and in the experiment with Solanum nigrum (SOLNI) (1000 g/Ha) was 5 (5=80-100%) in each case. In addition, the “percentage damage caused to the plant, ECHCG (five point scale)” value in experiment [3] (250 g/Ha) and in experiment [3] (1000 g/Ha) was 5 (5=80-100%) throughout.
As for `CC1(C)C(=O)C(c2c(F)ccc(Cl)c2OCc2ccccc2)C(=O)c2nccnc21` (stereo not drawn) [Compound 1.02], the “percentage damage caused to the plant, IPOHE (five point scale)” value in experiment [1] (250 g/Ha) and in experiment [1] (1000 g/Ha) was 5 (5=80-100%) in each case. In addition, the “percentage damage caused to the plant, AMARE (five point scale)” value in experiment [2] (250 g/Ha) and in experiment [2] (1000 g/Ha) was 5 (5=80-100%) each time. For the same compound, the “percentage damage caused to the plant, SETFA (five point scale)” value in the experiment with Setaria faberi (SETFA) (250 g/Ha) and in the experiment on Setaria faberi (SETFA) (1000 g/Ha) was 5 (5=80-100%) throughout. In addition, the “percentage damage caused to the plant, LOLPE (five point scale)” value in the experiment on Lolium perenne (LOLPE) (250 g/Ha) and in the experiment on Lolium perenne (LOLPE) (1000 g/Ha) was 5 (5=80-100%) in each case. The “percentage damage caused to the plant, SOLNI (five point scale)” value with Solanum nigrum (SOLNI) (250 g/Ha) and in the experiment with Solanum nigrum (SOLNI) (1000 g/Ha) was 5 (5=80-100%) throughout. Besides, the “percentage damage caused to the plant, ECHCG (five point scale)” value in experiment [3] (250 g/Ha) and in experiment [3] (1000 g/Ha) was 5 (5=80-100%) each time.
On to `CC1(C)c2nccnc2C(=O)C(c2c(F)ccc(Cl)c2OCc2ccccc2)S1(=O)=O` (stereo not drawn) [Compound 1.08, 7-(2-benzyloxy-3-chloro-6-fluoro-phenyl)-5,5-dimethyl-6,6-dioxo-thiopyrano[3,4-b]pyrazin-8-ol], for which the “percentage damage caused to the plant, IPOHE (five point scale)” value in experiment [1] (250 g/Ha) and in experiment [1] (1000 g/Ha) was 5 (5=80-100%) throughout. The “percentage damage caused to the plant, AMARE (five point scale)” value in experiment [2] (250 g/Ha) and in experiment [2] (1000 g/Ha) was 5 (5=80-100%) each time. The “percentage damage caused to the plant, SETFA (five point scale)” value with Setaria faberi (SETFA) (250 g/Ha) and in the experiment with Setaria faberi (SETFA) (1000 g/Ha) was 5 (5=80-100%) each time. Further, the “percentage damage caused to the plant, LOLPE (five point scale)” value with Lolium perenne (LOLPE) (250 g/Ha) and in the experiment with Lolium perenne (LOLPE) (1000 g/Ha) was 5 (5=80-100%) in each case. The “percentage damage caused to the plant, SOLNI (five point scale)” value in the experiment with Solanum nigrum (SOLNI) (250 g/Ha) and with Solanum nigrum (SOLNI) (1000 g/Ha) was 5 (5=80-100%) throughout. The entries for the “percentage damage caused to the plant, ECHCG (five point scale)” value in experiment [3] (250 g/Ha) and in experiment [3] (1000 g/Ha) were 4 (4=60-79%) and 5 (5=80-100%), respectively.
As to `O=C1c2nccnc2CS(=O)(=O)C1c1c(Cl)ccc(Cl)c1OCc1ccccc1` (stereo not drawn) [Compound 1.13], the “percentage damage caused to the plant, IPOHE (five point scale)” value in experiment [1] (250 g/Ha) and in experiment [1] (1000 g/Ha) was 5 (5=80-100%) throughout. Further, the “percentage damage caused to the plant, AMARE (five point scale)” value in experiment [2] (250 g/Ha) and in experiment [2] (1000 g/Ha) was 5 (5=80-100%) each time. Also, the “percentage damage caused to the plant, SETFA (five point scale)” value with Setaria faberi (SETFA) (250 g/Ha) and in the experiment with Setaria faberi (SETFA) (1000 g/Ha) was 5 (5=80-100%) throughout. Besides, the “percentage damage caused to the plant, LOLPE (five point scale)” value in the experiment with Lolium perenne (LOLPE) (250 g/Ha) and in the experiment with Lolium perenne (LOLPE) (1000 g/Ha) was 5 (5=80-100%) each time. Moreover, the “percentage damage caused to the plant, SOLNI (five point scale)” value in the experiment with Solanum nigrum (SOLNI) (250 g/Ha) and in the experiment on Solanum nigrum (SOLNI) (1000 g/Ha) was 5 (5=80-100%) each time. For the same compound, the “percentage damage caused to the plant, ECHCG (five point scale)” value in experiment [3] (250 g/Ha) and in experiment [3] (1000 g/Ha) was 5 (5=80-100%) each time.

The values are drawn from patent US10385063B2, “Herbicidal compounds” (Syngenta Participations AG, priority 2015, dated 2019).
